The results in this text go back to patent US20080255244A1, “CaM Kinase II Inhibitor Improves Retinoic Acid Therapy and Inhibits the Proliferation of Myeloid Leukemia Cells” (Fred Hutchinson Cancer Research Center, priority 2007, published 2008).

For experiment [1], the system named is activated CaMKIIγ in HL60R cells. Nature of the experiment: Western blot of CaMKIIγ autophosphorylation in HL60R cells. In kind it is cell-based, human. The settings on record: five days ATRA. As for the experimental part: (§1) FIG. 9. Terminal differentiation/apoptosis of myeloid leukemia cells is associated with decreased CaMKIIγ activation. (A) Lysates from the HL60, NB4 and U937 myeloid cell lines treated with ATRA (1 μM) for the indicated period of time were subjected to Western blots. (B) Lysates from the indicated myeloid cell lines treated for five days with the indicated concentration of ATRA were subjected to Western blots. (C) Lysates from HL60 cells treated with TPA (0.1 μM) for the indicated time were subjected to Western blots. (D) Lysates from NB4 cells treated with arsenic trioxide (1 uM) for the indicated time were subjected to Western blots.
(§2) Antibodies and Western blots. Protein extracts, immunoprecipitations and Western blots were performed as previously detailed (Si J, Collins S J. IL-3-induced enhancement of retinoic acid receptor activity is mediated through Stat5, which physically associates with retinoic acid receptors in an IL-3-dependent manner. Blood 100: 4401-9 (2002)). Antibodies against CaMKI, CaMKIIγ, CaMKIV, c-myc, Stat3, Stat5, calmodulin, as well as the phosphospecific CaMKII (T286, 287) and phosphospecific CaMKI (T177) antibodies were from Santa Cruz Biotechnology. […]

Experiment [2] has as its system activated CaMKIIγ in THP1 cells. Put plainly: Western blot of CaMKIIγ autophosphorylation in THP1 cells. The conditions noted are these: five days ATRA. The format is cell-based, human. As to the method: as §1, §2
Experiment [3] deals with activated CaMKIIγ in KG1 cells. Nature of the experiment: Western blot of CaMKIIγ autophosphorylation in KG1 cells. In kind it is cell-based, human. The conditions noted are these: five days ATRA. As for the experimental part:
as §1, §2
In general terms: A western blot detects proteins with antibodies after separation by electrophoresis.

Experiment [4] deals with NB4 subclones that are unresponsive to ATRA. Put plainly: Differentiation of ATRA-unresponsive NB4 subclones. The format is cell-based, human. The source says:
(§3) Pharmacological CaMK inhibitors trigger myeloid leukemia cell differentiation. Particularly compelling evidence for the physiological importance of the CaMKII—mediated regulation of RAR activity is our experimental observation that KN-62, a pharmacological inhibitor of the CaMKs, enhances both RAR transcriptional activity (FIG. 1B) and the differentiation of certain myeloid leukemia cell lines (FIG. 7). Acute myelogenous leukemia (AML) is a heterogenous disease, and successful therapy with RA has been generally confined to those leukemias harboring RARα chromosome translocations.

Another experiment deals with Kasumi cells. Nature of the experiment: Differentiation of Kasumi cells. The format is cell-based, human. The conditions noted are these: preliminary studies; not shown.
Description: as §3

The subject of another experiment is MPRO cell line. Nature of the experiment: Granulocytic differentiation of MPRO cell line. The settings on record: single agent; not shown. In kind it is cell-based. The source says: Thus the CaMK inhibitor KN-62 not only enhances RAR transcriptional activity but either as a single agent or in combination with relatively low doses of RA can induce/enhance the differentiation of different myeloid leukemia cell lines.

For experiment [5], the system named is HL60R cells (mutated RARα). Put plainly: Differentiation of HL60R cells. The format is cell-based, human. The conditions noted are these: HL60R harbor a mutated RARα.
Description: as §3

A further experiment concerns KCL-22 cells. Nature of the experiment: Differentiation of KCL-22 cells. The format is cell-based, human. The conditions noted are these: preliminary studies; not shown.
Description: as §3

A further experiment has as its system THP1 cells. Nature of the experiment: THP1 proliferation in liquid suspension culture. The format is cell-based, human. As to the method:
(§4) FIG. 11. […] (A) K562 cells were seeded in liquid suspension culture at 5×10^4 cells/ml in the presence or absence of the indicated concentration of compounds, and cell counts were obtained at the indicated time. (B) The indicated myeloid leukemia cell lines were seeded in liquid suspension culture at 5×10^4 cells/ml in the presence or absence of KN93, and cell counts obtained at the indicated time. (C) K562 cells were electroporated with the LXSN expression vector harboring the kinase dead, Lys^43 mutated, truncated CaMKII construct (kdCaMKII) as well as with the control (empty) LXSN vector. The electroporated cells were diluted into 96 well plates in liquid suspension culture in the presence of G418 (1 mg/ml). Following eight days of culture the total number of discrete, actively proliferating G418 resistant colonies within individual wells was determined.
(§5) Cell lines. All leukemia cell lines are cultured at 37° in RPMI supplemented with 5% heat-inactivated fetal calf serum.

The next experiment has as its system KG-1 cells. Nature of the experiment: KG-1 proliferation in liquid suspension culture. The format is cell-based, human. As to the method:
as §4, §5

A further experiment deals with K562 cells. Put plainly: K562 proliferation in liquid suspension culture (cell counts). In kind it is cell-based, human.
A further experiment concerns KCL22 cells. Nature of the experiment: KCL22 proliferation in liquid suspension culture. The format is cell-based, human. As to the method:
as §4, §5

The subject of experiment [6] is Stat3 transcriptional activity in K562 cells. Put plainly: Stat3 response element luciferase reporter in K562 cells. In kind it is cell-based, human. The conditions noted are these: 48 hours of culture. As to the method:
FIG. 13. Stat3 is directly phosphorylated and activated by CaMKIIγ at Ser727. (A, i). Cell lysates from the indicated human leukemia cell lines were subjected to Western blots utilizing the indicated Stat3 antibodies. ii). Cell lysates from the same primary AML samples depicted in FIG. 1B were subjected to Western blots utilizing the indicated Stat3 antibodies. B). The IL-3 dependent TonB210.1 cells were deprived of IL-3 for 24 hours. The cells were then treated with the indicated compounds immediately prior to the addition of doxycycline. After an additional 24 hours cell lysates were harvested and subjected to Western blots with the indicated Stat3 antibodies. C). K562 cells were electroporated with a luciferase reporter driven by a Stat3 response element. The indicated concentrations of KN93 and the Stat 3 inhibitor, cucurbitacin I, were added and relative luciferase activity determined on cell lysates following 48 hours of culture. D, i) K562 cell lysates were immunoprecipitated with control IgG or a Stat3 antibody. […]
Transient transfections and luciferase assays. […] Stat3 transcriptional activity was determined in K562 cells transfected with the pSIE-tk-LUC luciferase reporter which harbors a Stat3 binding site ([…]). […]
In general terms: A reporter such as luciferase makes a cellular process visible.

With `CC1=C(/C=C/C(C)=C/C=C/C(C)=C/C(=O)O)C(C)(C)CCC1` [ATRA, All-trans retinoic acid], the “activated CaMKIIγ level” value in experiment [1] is “not observed”; in experiment [2], “did not exhibit any decrease”; in experiment [3], “did not exhibit any decrease”.
`CN([C@@H](Cc1ccc(OS(=O)(=O)c2cccc3cnccc23)cc1)C(=O)N1CCN(c2ccccc2)CC1)S(=O)(=O)c1cccc2cnccc12` [KN-62]: in [4], the “KN62-mediated differentiation of ATRA-unresponsive NB4 subclones” value is listed as “do not observe any”. Also, in the experiment with Kasumi cells, the “differentiation of Kasumi” value was “does not induce”. Further, in the experiment with MPRO cell line, the “granulocytic differentiation of MPRO” value is reported as “enhanced”. The “KN62-mediated differentiation of HL60R” value in experiment [5] is “do not observe any”. Besides, the “differentiation of KCL-22” value in the experiment with KCL-22 cells is on record as “does not induce”.
Turning to `COc1ccc(S(=O)(=O)N(CCO)c2ccccc2CN(C)C/C=C/c2ccc(Cl)cc2)cc1` [KN-93], the cell proliferation entry in the experiment with THP1 cells, in the experiment with KG-1 cells and in the experiment on KCL22 cells was “inhibition” each time. Further, the “cell viability or morphologic differentiation” value with THP1 cells, in the experiment with KG-1 cells and with KCL22 cells was “without any significant effect” throughout. For the same molecule, the K562 viability result in the experiment with K562 cells is reported as “did not affect”. The K562 cell proliferation result with K562 cells (seeded at 5×10^4 cells/ml, cell counts) is recorded as “inhibited the proliferation of K562 cells in a dose dependent manner”. Besides, the “Stat3 responsive reporter activity” value in [6] is “inhibited”.
